Test system: Caenorhabditis elegans
Assay: C. elegans fast killing assay on PGS/PG agar
Assay type: in vivo
Experimental: The rate of killing observed under these conditions is defined as “slow killing.” Briefly, under the slow killing conditions, 5 μl of an overnight liquid culture of PA14 is spread on the center of an NGM (or M9) agar plate and grown for 37° C. for 24 hours. The plates are then allowed to cool to room temperature for several hours. Worms at the fourth larval stage (L4) are added to the agar but not in contact with the bacterial lawn. The worms typically move toward the bacterial lawn and commence feeding. In contrast, when PA14 worms were grown on peptone-glucose-sorbitol (PGS), a richer medium of higher osmolarity, a different result was obtained. When L4 worms were placed on PGS plates, the worms became sluggish, then paralyzed, and then died within 4–24 hours (FIG. 5). Some worms died even before coming into direct contact with the bacterial lawn. This more rapid killing on PGS agar is termed “fast killing.”
Nematode Killing Assay. Worm killing by P. aeruginosa was performed in a plate assay. For the fast killing assay, 5 μl of an overnight King's B (King et al. (1954) J. Lab. Clin. Med. 44:301–307) culture of PA14, or the test strains, were spread on 3.5 cm diameter plates containing PGS or PG agar. A bacterial lawn of about 2 cm diameter grew in the center of plate after incubation at 37° C. for 24 hours. After cooling to room temperature (ranges from 4–12 hours after removal from 37° C. incubator), 40 worms were added to the agar. Unless otherwise stated all worm strains were cultured at 20° C., and the fourth larval (L4) stage was used. The experiments were performed in 3–4 replicates per strain. Bristol N2 was used as the wild-type strain and E. coli OP50 for the negative control. Plates seeded with worms were incubated in 25° C. Worm mortality was scored at various time points. A worm was considered dead when no movement was detectable when touched lightly with an eye-lash pick. Slow killing assays were performed generally as described above.

[Cl][Fe]([Cl])[Cl] [FeCl3] was tested, and the “effect on PA14 fast killing of C. elegans (in words)” value (“effect on PA14 fast killing” below) (100 μM added to PGS) was “significantly reduced killing”.

OC[C@@H](O)[C@@H](O)[C@H](O)[C@@H](O)CO [sorbitol] was tested, and the “effect on PA14 fast killing” value (0.15 M added to Peptone-Glucose medium, compared to 0.1 M or no sorbitol) was “significantly increased the rate of killing”.

For EDDA, the “effect on PA14 fast killing” value (400 μM added to PGS) was “did not significantly affect fast killing”.
